Our source for the IC50 values is patent publication US20260159500A1, “KINESIN KIF18A INHIBITOR AND USE THEREOF” (SHANGHAI APEIRON THERAPEUTICS COMPANY LIMITED, priority 2022, published 2026).

Test [1] addresses T1, Human KIF18A (amino acid sequence 1-417) (Homo sapiens, UniProt Q8NI77).
T1 construct: purchased Viva Biotech (Shanghai) Ltd
T1 sequence (Q8NI77 1-417): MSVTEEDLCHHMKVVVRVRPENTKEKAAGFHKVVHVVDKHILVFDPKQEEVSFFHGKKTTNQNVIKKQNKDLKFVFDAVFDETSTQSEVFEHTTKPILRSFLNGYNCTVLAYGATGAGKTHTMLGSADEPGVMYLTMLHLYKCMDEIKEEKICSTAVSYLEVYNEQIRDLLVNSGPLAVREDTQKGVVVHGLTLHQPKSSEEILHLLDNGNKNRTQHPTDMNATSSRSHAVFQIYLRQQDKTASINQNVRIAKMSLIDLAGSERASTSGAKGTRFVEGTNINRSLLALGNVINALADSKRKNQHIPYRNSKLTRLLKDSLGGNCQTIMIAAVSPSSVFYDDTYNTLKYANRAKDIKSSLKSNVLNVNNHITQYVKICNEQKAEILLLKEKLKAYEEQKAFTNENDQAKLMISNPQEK
The experiment in a line: Enzymatic activity test (ADP-Glo, microtubule-stimulated KIF18A ATPase). To be noted: 60 μg/mL microtubules, 25 μM ATP, 2.5 nM KIF18A protein, 120 min at ambient temperature, read-out: KIF18A_nM. Type of test: biochemical. As to the method:
Human KIF18A (amino acid sequence 1-417) was purchased from Viva Biotech (Shanghai) Ltd.; the ADP-Glo™ protein kinase kit was acquired from Promega, USA; tubulin was sourced from Cytoskeleton, USA; and the 384-well assay plate and Envision multifunctional microplate reader were obtained from PerkinElmer, USA.
Dissolve the compound powder in DMSO to prepare a stock solution of 10 mM. Then perform gradient dilution for the compounds in the microplate to achieve a final concentration of 0-10 μM. Then, add 2.5 μL each of tubulin, compound, ATP, and KIF18A protein to the microplate in sequence for reaction at ambient temperature for 120 min. The final concentrations in the enzyme reaction are 60 μg/mL for microtubules, 25 μM for ATP, and 2.5 nM for KIF18A protein. After the enzyme reaction, add 10 μL of ADP-GLO reaction reagent to each well and incubate at ambient temperature for 30 min. After that, add 20 μL of detection reagent to each well and incubate at ambient temperature for 30 min in the dark. Finally, perform chemiluminescence detection using the PerkinElmer Envision.

A further test concerns OVCAR3 cells. Nature of the test: Cell proliferation activity test in OVCAR3 cells (CyQUANT Direct). In kind it is cell-based. The settings on record: Homo sapiens, OVCAR-3, 72 h, 3 days incubation, CyQUANT fluorescence detection, read-out: OVCAR-3_IC50_nM. As to the method:
OVCAR3 cells were purchased from Nanjing Cobioer Biosciences Co., Ltd. RPMI-1640 medium, fetal bovine serum, and the CyQUANT Direct Cell Proliferation Assay kit were purchased from Thermo Fisher Scientific, USA; 96-well cell culture plates were sourced from Corning, USA.
Culture OVCAR3 cells with RPMI-1640 medium containing 10% fetal bovine serum and incubate them in a 5% CO2 incubator at 37° C. Only cells in the logarithmic growth phase can be used for the test.
Inoculate OVCAR3 cells into a 96-well cell culture plate at 90 μL per well and incubate overnight in a 5% CO2 incubator at 37° C. Dissolve the compound powder in DMSO to prepare a stock solution of 10 mM. Then perform gradient dilution for the compounds in the microplate to achieve a final concentration of 0-10 μM. Add 10 μL of cell culture medium containing compounds to each well to make the final DMSO content 0.2%. Incubate the cell plates in a 5% CO2 incubator at 37° C. for 3 days. Add 100 μL of CyQUANT detection reagent to each well, react at 37° C. for 60 min, and perform fluorescence detection using the PerkinElmer Envision.

Another test deals with HT29 cells. The experiment in a line: CyQuant cell proliferation activity test in HT29 cells. Type of test: cell-based. The settings on record: Homo sapiens, HT-29, 72 h, 2000 cells per well, 3 days incubation, IC50 by XLFIT, read-out: HT29_IC50_nM. On the procedure: HT29 cells were purchased from Nanjing Cobioer Biosciences Co., Ltd.; RPMI-1640 medium, fetal bovine serum, Trypsin-EDTA (0.25%), 96-well plates, and CyQuant reagents were purchased from ThermoFisher (USA); DMSO was purchased from SIGMA (USA).
Culture HT29 cells with RPMI-1640 containing 10% fetal bovine serum under the condition of 37° C. and 5% CO2. Only cells in the logarithmic growth phase can be used for the test.
Use the CyQuant reagent to detect the proliferation inhibitory activity of compounds on HT29 cells. Adjust the cell density and inoculate 100 μL per well into the 96-well plate (HT29 at 2000 cells per well), then incubate overnight under the condition of 37° C. and 5% CO2. Add compounds of various target concentrations (initial concentration of 3000 nM, 3-fold dilution, 9 concentration gradients), and make the DMSO content 0.2%. Incubate the cell plates at 37° C. and 5% CO2 for 3 days. Incubate with CyQuant reagent for 1 h, read the plate by Envision, and calculate IC50 using XLFIT.

With `O=C(Nc1cc2ncnn2c(N2CCC(F)(F)CC2)n1)c1cc(F)c(NS(=O)(=O)CCO)cc1N1CCC2(CC1)CC2` [Example 25, (2-(6-azaspiro[2.5]oct-6-yl)-5-fluoro-4-{[(2-hydroxyethyl)sulphonyl]amino}phenyl)-N-[5-(4,4-difluoropiperidinyl)(4-hydro-1,2,4-triazolo[4,3-e]pyrimidin-7-yl)]formamide], the IC50 was found to be 5 nM in test [1], 46 nM in the test with OVCAR3 cells and 84 nM in the test with HT29 cells.

On to `Cc1nnc2cc(NC(=O)c3ccc(NS(=O)(=O)CCO)cc3N3CCC4(CC3)CC4)nc(N3CCC(F)(F)CC3)n12` [Example 27, N-(5-(4,4-difluoropiperidin-1-yl)-3-methyl-[1,2,4]triazolo[4,3-c]pyrimidin-7-yl)-4-(2-hydroxyethylsulfonamido)-2-(6-azaspiro[2.5]octan-6-yl)benzamide], for which the results for the IC50 (in test [1]; in the test with OVCAR3 cells; with HT29 cells) were 13 nM, 23 nM and 33 nM, respectively.

On to `O=C(Nc1cc2ccsc2c(N2CCC(F)(F)CC2)n1)c1ccc(NS(=O)(=O)CCO)cc1N1CCC2(CC1)CC2` [Example 28, N-(7-(4,4-difluoropiperidin-1-yl)thieno[2,3-c]pyridin-5-yl)-4-(2-hydroxyethylsulfonamido)-2-(6-azaspiro[2.5]octan-6-yl)benzamide], for which the IC50 was found to be 46 nM in test [1], 26 nM in the test with OVCAR3 cells and 9 nM in the test on HT29 cells.

As for `O=C(Nc1cc2ccoc2c(N2CCC(F)(F)CC2)n1)c1ccc(NS(=O)(=O)CCO)cc1N1CCC2(CC1)CC2` [Example 29, N-(7-(4,4-difluoropiperidin-1-yl)furo[2,3-c]pyridin-5-yl)-4-(2-hydroxyethylsulfonamido)-2-(6-azaspiro[2.5]octan-6-yl)benzamide], the figures for the IC50 (in test [1]; in the test on OVCAR3 cells; in the test with HT29 cells) were 28 nM, 13 nM and 11 nM, respectively.

Take `O=C(Nc1cc(N2CCC(F)(F)CC2)c2occc2c1)c1ccc(NS(=O)(=O)CCO)cc1N1CCC2(CC1)CC2` [Example 30, N-(7-(4,4-difluoropiperidin-1-yl)benzofuran-5-yl)-4-(2-hydroxyethylsulfonamido)-2-(6-azaspiro[2.5]octan-6-yl)benzamide]: the IC50 worked out at 27 nM in test [1], 7 nM with OVCAR3 cells and 10 nM in the test with HT29 cells.

For `O=C(Nc1cc2occc2c(N2CCC(F)(F)CC2)n1)c1ccc(NS(=O)(=O)CCO)cc1N1CCC2(CC1)CC2` [Example 31, N-(4-(4,4-difluoropiperidin-1-yl)furo[3,2-c]pyridin-6-yl)-4-(2-hydroxyethylsulfonamido)-2-(6-azaspiro[2.5]octan-6-yl)benzamide], the IC50 in test [1] came to 71 nM; in the test with OVCAR3 cells, 8 nM; with HT29 cells, 9 nM.

For the compound `O=C(Nc1nc(N2CCC(F)(F)CC2)c2occc2n1)c1ccc(NS(=O)(=O)CCO)cc1N1CCC2(CC1)CC2` [Example 32, N-(4-(4,4-difluoropiperidin-1-yl)furo[3,2-d]pyrimidin-2-yl)-4-((2-hydroxyethyl)sulfanilamide)-2-(6-azaspiro[2.5]octan-6-yl)benzamide], the IC50 in test [1] stood at 8 nM; in the test with OVCAR3 cells, 347 nM; in the test on HT29 cells it was 927 nM.

Take `Cn1cnc2cc(NC(=O)c3ccc(NS(=O)(=O)CCO)cc3N3CCC4(CC3)CC4)nc(N3CCC(F)(F)CC3)c21` [Example 34]: the figures for the IC50 (in test [1]; in the test on OVCAR3 cells; with HT29 cells) were 63 nM, 166 nM and 446 nM, respectively.

Consider `Cn1cnc2c(N3CCC(F)(F)CC3)nc(NC(=O)c3ccc(NS(=O)(=O)CCO)cc3N3CCC4(CC3)CC4)cc21` [Example 35, N-(4-(4,4-difluoropiperidin-1-yl)-1-methyl-1H-imidazolo[4,5-c]pyridin-6-yl)-4-((2-hydroxyethyl)sulfonamido)-2-(6-azaspiro[2.5]octan-6-yl)benzamide], for which the IC50 worked out at 29 nM in test [1], 27 nM with OVCAR3 cells and 57 nM in the test on HT29 cells.

For `Cn1ncc2c(N3CCC(F)(F)CC3)nc(NC(=O)c3ccc(NS(=O)(=O)CCO)cc3N3CCC4(CC3)CC4)cc21` [Example 36], the IC50 came to 39 nM in test [1], 64 nM with OVCAR3 cells and 62 nM with HT29 cells.
